pIC50: −log10 of the molar value.

For assay [1], the species on record is Rattus norvegicus. As to the kind of experiment: Effective dose required for inhibition of passive cutaneous anaphylaxis (PCA) in the rat at multiple dose levels. The class given is functional.
The species named for assay [2] is Rattus norvegicus. As to the kind of experiment: Evaluated on antigen induced release of histamine (AIR) in vitro from rat peritoneal mast cells (RMC) at multiple dose levels. The class given is functional, cell-based. As to conditions: Mast cell, read-out: I 50.
For assay [3], the system named is Rattus norvegicus. Put plainly: Inhibition of passive cutaneous anaphylaxis (PCA) in the rat at 25 mg /kg.(orally). The class given is functional. The following applies: po.
In assay [4] the test system is Rattus norvegicus. Put plainly: Percent inhibition of antigen induced release of histamine (AIR) in vitro from rat peritoneal mast cells (RMC) […]. The class given is functional.
Assay [5] deals with Rattus norvegicus. As to the kind of experiment: Inhibition of passive cutaneous anaphylaxis (PCA) in the rat at 30 mg /kg.(orally). The class given is functional. The following applies: po.
The subject of assay [6] is Rattus norvegicus. As to the kind of experiment: Percent inhibition of antigen induced release of histamine (AIR) in vitro from rat peritoneal mast cells (RMC) […]. The class given is functional.

The molecule `Cc1ccc2c(n1)sc1c(O)nnnc12` gave a 50% effective dose (ED50) in the assay listed under Rattus norvegicus [1] of 5.2 mg/kg. The pIC50 in the assay filed under Rattus norvegicus [2] is 6.60. Also, at 25 mg/kg the inhibition in vivo with Rattus norvegicus [3] was 88%.

Take `CCOc1nnnc2c1sc1nc(C)ccc12`: it took a dose of 27 mg/kg to reach the 50% effect level in the assay filed under Rattus norvegicus [1] (ED50). The I in the assay with Rattus norvegicus [4] was 18%. In the assay on Rattus norvegicus [3], this molecule registered an inhibition in vivo at 25 mg/kg of 52%.

Consider `CCOCOc1nnnc2c1sc1nc(C)ccc12`, for which, in the assay filed under Rattus norvegicus [2], the pIC50 is 5.22. The same molecule gave an inhibition in vivo at 25 mg/kg with Rattus norvegicus [3] of 22%.

In the assay filed under Rattus norvegicus [1], `Oc1nnnc2c1sc1nc(-c3ccccc3)ccc12` registered a 50% effective dose (ED50) of 3 mg/kg. In the assay listed under Rattus norvegicus [2], the pIC50 is 7.30. This molecule also showed an inhibition in vivo at 30 mg/kg in the assay with Rattus norvegicus [5] of 68%.

In turn, `Cc1cc(C)c2c(n1)sc1c(O)nnnc12` yielded an ED50 in the assay filed under Rattus norvegicus [1] of 3.6 mg/kg. In addition, the pIC50 in the assay filed under Rattus norvegicus [2] is 4.10. Further, in the assay on Rattus norvegicus [3], the inhibition in vivo at 25 mg/kg is 70%.

As for `Cc1ccc2c(n1)sc1c(N)nnnc12`, the pIC50 in the assay listed under Rattus norvegicus [2] was 5.77. Also, the inhibition in vivo at 25 mg/kg in the assay with Rattus norvegicus [3] came to 38%.

As to `CNc1nnnc2c1sc1nc(C)ccc12`, in the assay listed under Rattus norvegicus [2], the pIC50 is 4.96. The molecule also displayed an inhibition in vivo at 25 mg/kg in the assay on Rattus norvegicus [3] of 32%.

As to `CSc1nnnc2c1sc1nc(C)ccc12`, the I in the assay with Rattus norvegicus [4] is recorded as 4%.

In the case of `Cc1ccc2c(n1)sc1c(S)nnnc12`, the pIC50 in the assay listed under Rattus norvegicus [2] was 7.00.

As to `Cc1ccc2c(n1)sc1cnnnc12`, in the assay listed under Rattus norvegicus [1], the 50% effect level (ED50) was put at a dose of 1.5 mg/kg. Also, the pIC50 in the assay listed under Rattus norvegicus [2] is 4.54. In addition, the inhibition in vivo at 25 mg/kg in the assay on Rattus norvegicus [3] amounted to 93%.

As for `COC(=O)NNc1nnnc2c1sc1nc(C)ccc12`, in the assay with Rattus norvegicus [6], the I came out at 21%. Moreover, 25 mg/kg produced 5% inhibition in vivo with Rattus norvegicus [3].

For orientation: ED50 means the midpoint of the dose-response relation. Lower therefore signals an effect at a small dose. Broadly, the inhibition in vivo is the change of the read-out against control, counted positive when it falls. A higher inhibition in vivo goes with strong suppression.

The record behind these values is ChEMBL document CHEMBL1122802, “Pyrido[3',2':4,5]thieno[3,2-d]-N-triazines: a new series of orally active antiallergic agents” (J Med Chem, 1984).
